According to patent US20120034613A1, “Apparatus and Method for Testing Relationships Between Gene Expression and Physical Appearance of Skin” (NSE Products, Inc., priority 2010, published 2012):

System: EpidermFT™ Skin Model (EFT-400) full thickness skin cultures
Assay: Affymetrix GeneChip HG U133 Plus 2.0 microarray global gene expression, agent-exposed vs untreated skin cultures
Format: cell-based, human
Conditions: 24 hr; for Direction / Fold change: Salicin 0.5%
[1] = 210424_s_at GOLGA8A /// GOLGA8B
[2] = 219471_at C13orf18 /// LOC728970

## OCc1ccccc1O[C@@H]1O[C@H](CO)[C@@H](O)[C@H](O)[C@H]1O [Salicin, 2-(Hydroxymethyl)phenyl β-D-glucospyranoside]
0.5% vs untreated, down
  Fold change SPTLC2 (203128_at): 3.78
  Fold change SPTLC2 (225095_at): 3.474
  Fold change ST14 (216905_s_at): 3.604
  Fold change STARD5 (213820_s_at): 3.436
  Fold change STON2 (227461_at): 3.288
  Fold change STOX2 (231969_at): 3.5
  Fold change STYK1 (220030_at): 3.584
  Fold change SYK (207540_s_at): 3.163
  Fold change SYNE2 (202761_s_at): 3.62
  Fold change SYTL1 (227134_at): 3.294
  Fold change TACC2 (211382_s_at): 3.335
  Fold change TGFA (205015_s_at): 3.134
  Fold change TGM3 (206004_at): 3.783
  Fold change THBD (203887_s_at): 3.137
  Fold change TIAM1 (206409_at): 3.792
  Fold change TM7SF3 (217974_at): 3.241
  Fold change TMEM54 (225536_at): 3.354
  Fold change TMEM184A (1558281_a_at): 3.052
  Fold change TPD52L1 (203786_s_at): 3.196
  Fold change TRIM7 (223694_at): 3.302
  Fold change TRIM7 (239694_at): 3.174
  Fold change TRIM14 (203147_s_at): 3.14
  Fold change TRIM14 (203148_s_at): 3.658
  Fold change TRIM25 (224806_at): 3.869
  Fold change TST (209605_at): 3.038
  Fold change UBL3 (201534_s_at): 3.354
  Fold change UGT1A1 /// UGT1A10 /// UGT1A4 /// UGT1A6 /// UGT1A8 /// UGT1A9 (207126_x_at): 3.18
  Fold change UPK1B (210065_s_at): 3.412
  Fold change USP2 (229337_at): 3.391
  Fold change USP6NL (238164_at): 3.19
  Fold change VAMP8 (202546_at): 3.922
  Fold change VWA5A (210102_at): 3.897
  Fold change WNT3 (229103_at): 3.218
  Fold change XG (1554062_at): 3.378
  Fold change ZBTB7C (227782_at): 3.288
  Fold change ZNF91 (206059_at): 3.205
63825_at ABHD2
  Direction: up
  Fold change: 2.157
201467_s_at NQO1
  Direction: up
  Fold change: 2.122
201468_s_at NQO1
  Direction: up
  Fold change: 2.093
202724_s_at FOXO1
  Direction: up
  Fold change: 2.098
202952_s_at ADAM12
  Direction: up
  Fold change: 2.155
203066_at GALNAC4S-6ST
  Direction: up
  Fold change: 2.113
203426_s_at IGFBP5
  Direction: up
  Fold change: 2.075
203518_at LYST
  Direction: up
  Fold change: 2.15
203740_at MPHOSPH6
  Direction: up
  Fold change: 2.138
203853_s_at GAB2
  Direction: up
  Fold change: 2.114
204115_at GNG11
  Direction: up
  Fold change: 2.108
204396_s_at GRK5
  Direction: up
  Fold change: 2.087
204420_at FOSL1
  Direction: up
  Fold change: 2.141
204456_s_at GAS1
  Direction: up
  Fold change: 2.089
204742_s_at PDS5B
  Direction: up
  Fold change: 2.139
204790_at SMAD7
  Direction: up
  Fold change: 2.151
205110_s_at FGF13
  Direction: up
  Fold change: 2.158
208415_x_at ING1
  Direction: up
  Fold change: 2.15
209436_at SPON1
  Direction: up
  Fold change: 2.145
210145_at PLA2G4A
  Direction: up
  Fold change: 2.072
210355_at PTHLH
  Direction: up
  Fold change: 2.144
[1]
  Direction: up
  Fold change: 2.127
210519_s_at NQO1
  Direction: up
  Fold change: 2.116
210665_at TFPI
  Direction: up
  Fold change: 2.091
210841_s_at NRP2
  Direction: up
  Fold change: 2.133
211725_s_at BID
  Direction: up
  Fold change: 2.092
211981_at COL4A1
  Direction: up
  Fold change: 2.121
212298_at NRP1
  Direction: up
  Fold change: 2.073
212554_at CAP2
  Direction: up
  Fold change: 2.082
213032_at NFIB
  Direction: up
  Fold change: 2.146
213033_s_at NFIB
  Direction: up
  Fold change: 2.125
213093_at PRKCA
  Direction: up
  Fold change: 2.125
213790_at ADAM12
  Direction: up
  Fold change: 2.085
213994_s_at SPON1
  Direction: up
  Fold change: 2.086
214014_at CDC42EP2
  Direction: up
  Fold change: 2.119
214211_at FTH1
  Direction: up
  Fold change: 2.154
214913_at ADAMTS3
  Direction: up
  Fold change: 2.145
215012_at ZNF451
  Direction: up
  Fold change: 2.114
215785_s_at CYFIP2
  Direction: up
  Fold change: 2.107
215997_s_at CUL4B
  Direction: up
  Fold change: 2.138
217202_s_at GLUL
  Direction: up
  Fold change: 2.106
217739_s_at NAMPT
  Direction: up
  Fold change: 2.155
218574_s_at LMCD1
  Direction: up
  Fold change: 2.123
218665_at FZD4
  Direction: up
  Fold change: 2.078
218810_at ZC3H12A
  Direction: up
  Fold change: 2.117
219054_at C5orf23
  Direction: up
  Fold change: 2.096
219283_at C1GALT1C1
  Direction: up
  Fold change: 2.107
219284_at HSPBAP1
  Direction: up
  Fold change: 2.08
[2]
  Direction: up
  Fold change: 2.12
219558_at ATP13A3
  Direction: up
  Fold change: 2.138
219774_at CCDC93
  Direction: up
  Fold change: 2.13
219790_s_at NPR3
  Direction: up
  Fold change: 2.115
220253_s_at LRP12
  Direction: up
  Fold change: 2.096
221586_s_at E2F5
  Direction: up
  Fold change: 2.079
221881_s_at CLIC4
  Direction: up
  Fold change: 2.109
223758_s_at GTF2H2
  Direction: up
  Fold change: 2.138
224461_s_at AIFM2
  Direction: up
  Fold change: 2.132
224583_at COTL1
  Direction: up
  Fold change: 2.077
224978_s_at USP36
  Direction: up
  Fold change: 2.122
225034_at ST3GAL1
  Direction: up
  Fold change: 2.099
225185_at MRAS
  Direction: up
  Fold change: 2.155
225212_at SLC25A25
  Direction: up
  Fold change: 2.108
225436_at FAM108C1
  Direction: up
  Fold change: 2.142
225590_at SH3RF1
  Direction: up
  Fold change: 2.104
225871_at STEAP2
  Direction: up
  Fold change: 2.153
226136_at GLIPR1
  Direction: up
  Fold change: 2.104
226142_at GLIPR1
  Direction: up
  Fold change: 2.129
226160_at H6PD
  Direction: up
  Fold change: 2.103
226731_at PELO
  Direction: up
  Fold change: 2.098
226800_at EFCAB7
  Direction: up
  Fold change: 2.156
228082_at ASAM
  Direction: up
  Fold change: 2.108
228702_at FLJ43663
  Direction: up
  Fold change: 2.156
228949_at GPR177
  Direction: up
  Fold change: 2.105
228950_s_at GPR177
  Direction: up
  Fold change: 2.126
229194_at PCGF5
  Direction: up
  Fold change: 2.107
229306_at FAM148B
  Direction: up
  Fold change: 2.129
229414_at PITPNC1
  Direction: up
  Fold change: 2.108
229553_at PGM2L1
  Direction: up
  Fold change: 2.113
229623_at FLJ12993
  Direction: up
  Fold change: 2.132
230291_s_at NFIB
  Direction: up
  Fold change: 2.15
232004_at HNRNPR
  Direction: up
  Fold change: 2.126
232267_at GPR133
  Direction: up
  Fold change: 2.135
232311_at B2M
  Direction: up
  Fold change: 2.121
235019_at CPM
  Direction: up
  Fold change: 2.117
235182_at ISM1
  Direction: up
  Fold change: 2.138
235311_at FKBP14
  Direction: up
  Fold change: 2.153
236154_at QKI
  Direction: up
  Fold change: 2.103
238893_at LOC338758
  Direction: up
  Fold change: 2.075
239108_at FAR2
  Direction: up
  Fold change: 2.081
239415_at MAP9
  Direction: up
  Fold change: 2.126
240395_at LOC100128727
  Direction: up
  Fold change: 2.078
241986_at BMPER
  Direction: up
  Fold change: 2.136
243631_at LOC727815
  Direction: up
  Fold change: 2.087
243797_at STK17B
  Direction: up
  Fold change: 2.09
244752_at ZNF438
  Direction: up
  Fold change: 2.083
1553962_s_at RHOB
  Direction: up
  Fold change: 2.094
